# Laboratory results taken from patent US20040198716A1, “Cysteine protease inhimbitors” (priority 2001, published 2004).
# T1: papain (Carica papaya, UniProt P00784)
# T1 sequence (P00784 134-345): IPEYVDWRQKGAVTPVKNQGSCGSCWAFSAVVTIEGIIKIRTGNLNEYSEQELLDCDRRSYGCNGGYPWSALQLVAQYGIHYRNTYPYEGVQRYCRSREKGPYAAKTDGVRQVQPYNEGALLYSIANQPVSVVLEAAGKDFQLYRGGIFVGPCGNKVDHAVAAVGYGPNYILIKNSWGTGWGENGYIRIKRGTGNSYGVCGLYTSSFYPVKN
# T2: TPCK-trypsin (Bos taurus, UniProt P00760)
# T2 sequence (P00760 24-246): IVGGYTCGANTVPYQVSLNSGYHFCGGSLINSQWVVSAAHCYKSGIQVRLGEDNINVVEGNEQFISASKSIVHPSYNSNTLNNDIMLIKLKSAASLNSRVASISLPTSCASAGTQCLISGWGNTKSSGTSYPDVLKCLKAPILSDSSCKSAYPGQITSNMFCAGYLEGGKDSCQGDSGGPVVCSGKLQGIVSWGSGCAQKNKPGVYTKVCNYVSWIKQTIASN
# T3: human recombinant caspase-3 (Homo sapiens, UniProt P42574)
# T3 construct: purchased Sigma
# T3 sequence (P42574 29-175 limits assumed): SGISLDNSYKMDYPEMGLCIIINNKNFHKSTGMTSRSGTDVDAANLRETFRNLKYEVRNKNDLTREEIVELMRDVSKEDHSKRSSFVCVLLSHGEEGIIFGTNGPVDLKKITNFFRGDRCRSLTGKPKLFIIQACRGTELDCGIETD
# T3 sequence (P42574 176-277 limits assumed): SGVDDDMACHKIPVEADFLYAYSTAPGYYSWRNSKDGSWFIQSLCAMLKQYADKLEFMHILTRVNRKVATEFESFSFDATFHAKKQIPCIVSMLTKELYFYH
# B1: STI: Soybean Trypsin Inhibitor, known inhibitor control (protein, UniProt P01070 25-205, looked up)
# Trypsin inhibitor A: DFVLDNEGNPLENGGTYYILSDITAFGGIRAAPTGNERCPLTVVQSRNELDKGIGTIISSPYRIRFIAEGHPLSLKFDSFAVIMLCVGIPTEWSVVEDLPEGPAVKIGENKDAMDGWFRLERVSDDEFNNYKLVFCPQQAEDDKCGDIGISIDHDDGTRRLVVSKNKPLVVQFQKLDKESL
# How the values were obtained:
# HeLa-H1 cells = assay: Toxicity in uninfected cells of the cell culture 3C-protease assay; format: cell-based; parameters: key to TC50: —: the hyphens indicate no value was able to be calculated (i.e. the drug response did not cross the 50% point); settings: compound-treated uninfected HeLa-H1 cells, 48 hours, alamarBlue, dilution series 250-0.98 μM, several values per compound = repeat determinations; for CC50: read-out: TC50 (the source's name)
# Description: (§1) In this assay, 96 well micro titer plates were seeded with 10^4 HeLa-H1 (ATCC) cells per well and incubated in DMEM+10% FBS (Gibco) for 24 hours at 37° C., saturated humidity and 5% CO2. Human Rhinovirus serotype 1A (ATCC) were titered to produce a 30% cell kill and added to some wells of a 96 well plate, other wells were mock infected with media only, followed by incubation at 33° C., saturated humidity and 5% CO2 for 1 hour. Compounds were dissolved in DMSO, diluted in DMEM and added in a 9 step 2-fold dilution series (250, 125, 62.5, 31.25, 15.63, 7.81, 3.91, 1.95, 0.98 μM) 1 hour after virus treatment. Plates were incubated for 48 hours at 33° C., saturated humidity and 5% CO2 in a final volume of 100 μL FBS free DMEM. Cell survival was measured by the addition of 10 μL of alamarBlue™ (BioSource), incubation at 33° C. for 45 minutes and reading in a fluorescence plate reader, excitation: 544 nm, emission: 590 nm. The inhibitory concentration 50% (IC50) was calculated as the concentration of compound that increased the percentage fluorescence in the compound-treated virus-infected cells to 50% of that produced by compound-free, uninfected cells. The toxicity concentration 50% (TC50) was calculated as the concentration of compound that decreased the percentage fluorescence in the compound-treated, uninfected cells to 50% of the compound-free, uninfected cells. The therapeutic index (Ti) was calculated by dividing the […].
# papain = molecular target: T1, papain; assay: Cross-reactivity protease inhibition assay (QuantiCleave), papain; format: biochemical; settings: ratio Abs450nm with inhibitor / without inhibitor; 100 μM compound
# Description: (§2) To evaluate whether inhibition was specific to caspase-3 or applicable to other cysteine proteases or other proteases, inhibitor molecules were assayed for their capacity to inhibit additional non-caspase proteases. Three proteases, TPCK-trypsin, α-chymotrypsin and papain, were used to test for protease inhibition cross-reactivity. Protease inhibition assays were performed in 96-well flat-bottomed micro-titer plates with the QuantiCleave™ protease assay kit (Pierce, Rockford, Ill.) according to the manufacturer's instructions. Briefly, the assay conditions contained 100 μM compound, 2 mg/mL of succinylated-casein and 0.15 mg/mL of the protease. The assay incubated in a final volume of 150 μLs 0.05 M sodium borate pH 8.5 buffer (NaB-buffer) for 20 minutes at 25° C. After the protease reaction, 50 μLs of a trinitrobenzenesulfonic acid (TNBSA) solution (1:15, TNBSA:NaB-buffer) was added to each reaction and further incubated for 20 minutes at 25° C. Absorbance values at 450 nm were read in an Emax (Molecular Devices, Sunnyvale, Calif.) micro plate reader. Appropriate controls were performed, including known inhibitors (soybean trypsin inhibitor, aminoethyl-benzenesulfonic acid and leupeptin) for the proteases.
# (§3) Relative activities in the presence of inhibitor were calculated by taking the ratio of absorbance for a reaction containing inhibitor to the absorbance for a reaction without inhibitor. Significant inhibition was determined by testing the null hypothesis of equivalence between the mean absorbance of reactions containing inhibitor and the mean absorbance of reactions without inhibitor (2 tailed t-test, 2 df).
# (§4) The results are given in Table V in terms of cross-reactivities, relative activity and significant difference of 100 μM protease inhibitors on the proteases trypsin, chymotrypsin and papain.
# [1] = molecular target: T4, Human Rhinovirus serotype 1A 3C Protease (Human rhinovirus 1A, UniProt P23008); assay: 3C Protease Biochemical Assay (FRET); settings: 30° C., 2-6uM substrate, 416 nM 3CP
# T4 construct: used to clone the 3C Protease into the expression vector pET16-b; made in house; host or cells: E. coli BL21-DE3-pLys-S
# T4 sequence (P23008 1515-1697): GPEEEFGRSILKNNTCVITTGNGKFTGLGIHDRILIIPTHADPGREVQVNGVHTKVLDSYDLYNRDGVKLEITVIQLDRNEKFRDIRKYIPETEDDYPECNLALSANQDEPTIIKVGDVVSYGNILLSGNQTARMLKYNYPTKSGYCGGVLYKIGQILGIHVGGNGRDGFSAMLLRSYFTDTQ
# Description: Human Rhinovirus serotype 1A (ATCC) was used to clone the 3C Protease into the expression vector pET16-b and transformed for production into the E. coli strain BL21-DE3-pLys-S. 3C Protease expression was induced with 1 mM IPTG at 25° C. and purified from the soluble protein extract by chromatography on a SourceQ (Pharmacia) followed by gel filtration. HRV 3CP activity was measured by fluorescence resonance energy transfer using a dimodified decapeptide substrate MOC-[…]DNP-NH2 (7-methoxy coumarin-4-acetic acid fluorochrome and dinitrophenol quencher) with a Km value of 16.8 μM. Inhibition was measured as a change in initial velocity (V0) as a function of inhibitor (I) concentration and substrate (S) concentration. […] Fluorescence was monitored by excitation at 328 nm and emission at 393 nm with 10 nm cutoffs. Data were analyzed with the nonlinear regression analysis program EnzFitter (BioSoft) with the equation:
# Ki=(I/((VmaxxS)/V0)/Ks)−I−S
# Substrate concentrations used were lower than the Km of the substrate (16.8 uM) so no corrections for an S/Km term were used.
# α-chymotrypsin = α-chymotrypsin (Bos taurus, UniProt P00766, DEL14-15/DEL147-148); assay: Cross-reactivity protease inhibition assay (QuantiCleave), chymotrypsin; format: biochemical; settings: ratio Abs450nm with inhibitor / without inhibitor; 100 μM compound
# Description: as §2, §3, §4
# TPCK-trypsin = molecular target: T2, TPCK-trypsin; assay: Cross-reactivity protease inhibition assay (QuantiCleave), trypsin; format: biochemical; settings: ratio Abs450nm with inhibitor / without inhibitor; 100 μM compound
# Description: as §2, §3, §4
# [2] = molecular target: T3, human recombinant caspase-3; assay: In vitro high throughput caspase-3 assay; format: biochemical; settings: for Percent Activity: percentage of the positive control, 20-250 μM test compound, lower = better inhibition, negative = better than control caspase inhibitor; for Caspase-3 Activity: relative activity as a fraction, values match Table II percent activity divided by 100; for Ki: calculated from IC50 according to Equation 1, read-out: Ki(app); for IC50: fixed substrate concentration of 55 μM, inhibitors 75 to 0.067 μM in duplicate
# Description: Purified Human recombinant caspase-3, fluorescence labeled substrate (Acetyl-Asp-Glu-Val-Asp-7-amino-4-trifluoromethyl coumarin), and known inhibitor (Z-Asp-Glu-Val-Asp-fluoromethyl ketone) can be purchased from Sigma Chemical Co. (St. Louis, Mo.). The enzyme reactions are carried out at room temperature in 10 mM PIPES pH=7.4, 2 mM EDTA, 0.1% CHAPS, 5 mM DTT reaction buffer. Each well on the 96 well plate contains the above reaction buffer plus 55 μM fluorescence labeled substrate, 0.125 μg caspase-3, and 20-250 μM test compound. Positive and negative controls are present on each assay plate. A standard curve is generated using 7-amino-4-trifluoromethyl coumarin in the concentration range from 0.15 μM to 5.0 μM. The reactions are preferably read every 0.5 hours using a fluorescence microtiter plate reader set for 390 nm excitation and 538 nm emission for the first 4 hours after which the plates are left at room temperature overnight. One reading is taken the next morning as a final measurement.
# To determine the caspase inhibitory activity of these compounds, the in vitro high throughput caspase-3 assay presented herein was utilized. Purified human recombinant caspase-3, fluorescence labeled substrate (Acetyl-Asp-Glu-Val-Asp-7-amino-4-trifluoromethyl coumarin), and known inhibitor (Z-Asp-Glu-Val-Asp-fluoromethyl ketone) were purchased from Sigma. The enzyme reactions were carried out at room temperature in 10 mM PIPES pH=7.4, 2 mM EDTA, 0.1% CHAPS, 5 mM DTT reaction buffer. Each well on the 96 well plate contained the above reaction buffer plus 55 μM fluorescence labeled substrate, 0.125 μg caspase-3, and 20-250 μM test compound. Positive and negative controls were present on each assay plate. A standard curve was generated using 7-amino-4-trifluoromethyl coumarin in the concentration range from 0.15 μM to 5.0 μM. The reactions were read every 0.5 hours using a fluorescence microtiter plate reader set for 390 nm excitation and 538 nm emission for the first 4 hours after which the plates were left at room temperature overnight. One reading was taken the next morning as a final measurement.
# Ki determinations were carried out using the above assay system. […] Ki(app) was calculated according to Equation 1: [formula]
# The concentration of inhibitors ranged from 75 to 0.067 μM with each inhibitor concentration assayed in duplicate. The Km for the substrate was determined from a standard Lineweaver-Burke plot.
# cysteine protease = assay: Cysteine protease inhibitory activity, no method given
# [3] = test system: Human Rhinovirus serotype 1A; assay: Cell Culture 3C-Protease Activity Assay (protection of rhinovirus-infected cells); format: cell-based; settings: for IC50: HeLa-H1 cells infected with Human Rhinovirus serotype 1A, 48 hours, alamarBlue cell survival, dilution series 250-0.98 μM, several values per compound = repeat determinations
# Description: as §1
molecule,measurement,setting,value
COC(=O)CCNc1ccc(O)c2c1C(=O)c1ccccc1C2=O [cpi0136.NS131731],TC50,HeLa-H1 cells,"—, and —"
"CC(=O)N[C@@H](CC(C)C)C(=O)N[C@@H](CC(C)C)C(=O)N[C@H](C=O)CCCNC(=N)N [Leupeptin, leupeptin, reference compound]",Papain Activity,papain,0.095
O=C1C=CC(=O)c2c(O)ccc(O)c21 [cpi0131],Ki,[1],307 µM
same,Papain Activity,papain,0.505
same,α-Chymotrypsin Activity,α-chymotrypsin,0.915
same,TPCK-Trypsin Activity,TPCK-trypsin,0.819
same,Percent Activity,[2],−1.78%
same,Caspase-3 Activity,[2],−0.0178
COc1cccc2occc(=O)c12 [cpi0409],TC50,HeLa-H1 cells,"—, and —"
"NCCc1ccc(S(=O)(=O)F)cc1 [AEBSF, reference compound]",α-Chymotrypsin Activity,α-chymotrypsin,0.466
CC(C)=CC[C@H](O)C1=CC(=O)c2c(O)ccc(O)c2C1=O [alkannin],cysteine protease inhibitory activity,cysteine protease,exhibit cysteine protease inhibitory activity
CC(C)=CCC1=C(O)C(=O)c2ccccc2C1=O [cpi0133],Papain Activity,papain,0.897
same,α-Chymotrypsin Activity,α-chymotrypsin,1.081
same,TPCK-Trypsin Activity,TPCK-trypsin,1.196
same,Percent Activity,[2],48.29%
same,Caspase-3 Activity,[2],0.483
"CCn1cc(C(=O)O)c(=O)c2ccc(C)nc21 [cpi0176, nalidixic acid, reference compound]",potency as an antirhinoviral agent relative to potency as an antibiotic agent,[3],10 fold
same,Ki,[1],195 µM
same,TC50,HeLa-H1 cells,"—, and —"
O=c1cc(-c2ccccc2)oc2cc(O)cc(O)c12 [cpi0124],Papain Activity,papain,0.445
same,α-Chymotrypsin Activity,α-chymotrypsin,1.029
same,TPCK-Trypsin Activity,TPCK-trypsin,1.075
same,Percent Activity,[2],51.49%
same,Caspase-3 Activity,[2],0.515
O=C(O)CCNc1ccc(O)c2c1C(=O)c1ccccc1C2=O [cpi0136.0012],IC50,[3],30 µM
same,CC50,HeLa-H1 cells,> 30 µM
same,Ki,[2],1.24 µM
same,IC50,[2],7.82 µM
same,Percent Activity,[2],7.846%
O=C(O)CN(CC(=O)O)Cc1cc2c(c(O)c1O)C(=O)c1ccccc1C2=O [cpi0136.0009],IC50,[3],0.2 µM
same,CC50,HeLa-H1 cells,> 30 µM
same,Ki,[2],6.16 µM
same,IC50,[2],38.8 µM
same,Percent Activity,[2],−0.4239%
CC(C)=CC[C@@H](O)C1=CC(=O)c2c(O)ccc(O)c2C1=O [shikonin],cysteine protease inhibitory activity,cysteine protease,exhibit cysteine protease inhibitory activity
B1,TPCK-Trypsin Activity,TPCK-trypsin,0.017
